Tested on: HEK293 T cells
Experiment: GFP to BFP fluorescent reporter assay of HDR efficiency (AAVS1 locus)
Type: cell-based, human
Description: The effect of DNA PK inhibition by Nu7441 correction of a DSB by the NHEJ pathway (e.g., introduce an indel at the DSB site) or HDR pathway (e.g., introduce a gene mutation encoded by a homology donor at the DSB site) was assessed using the reporter system described in Example 1. In this case gene-editing was evaluated in HEK293 T cells expressing GFP in the AAVS1 locus. To introduce a gene edit that converts GFP to BFP, cells were electroporated with ribonucleoprotein (RNP) comprised of Cas9 and gRNA1 (GFP target sequence identified by SEQ ID NO: 9; sgRNA spacer sequence identified by SEQ ID NO: 10) or gRNA2 (GFP target sequence identified by SEQ ID NO: 11; sgRNA spacer identified by SEQ ID NO: 12) that targets the GFP gene encoded in the AAVS1 locus. The cells were also transfected with ssODNs that encoded the gene correction necessary to convert GFP to BFP and homology arms complimentary to the sequence upstream and downstream of the target gene cut site. The efficiency of HDR repair was determined by measuring the level of cell BFP fluorescence. The efficiency of cutting (indel information) was monitored by TIDE analysis.
Shown in FIGS. 2A-2B is a comparison of HDR editing efficiency for cells treated with Nu7441, SCR7, or RS-1. Shown in FIG. 2A are cells were electroporated with RNP comprising Cas9 and gRNA1 (GFP target sequence shown in SEQ ID NO: 9; sgRNA spacer sequence identified by SEQ ID NO: 10). 2×10^5 cells were edited with 1 μM Cas9 and 1.5 μM gRNA1. The cells were transfected with four different ssODNs. These included ssODN 1067 (SEQ ID NO: 29) and ssODN 1069 (SEQ ID NO: 31) that are complimentary to the DNA strand containing the PAM sequence and ssODN 1068 (SEQ ID NO: 30) and ssODN 1070 (SEQ ID NO: 32) that are complimentary to the DNA strand not containing the PAM sequence. Cells were edited with 100 μM ssODN. A concentrated stock solution of each inhibitor was prepared in DMSO and diluted to a final concentration of 2.5 μM Nu7441, 1.25 μM SCR7, or 10 μM RS-1. HDR efficiency was compared relative to treatment with DMSO alone or to treatment with RNP-only.
Shown in FIG. 2B are cells were electroporated with RNP comprising Cas9 and gRNA2 (GFP target sequence shown in SEQ ID NO: 11; sgRNA spacer sequence shown in SEQ ID NO: 12). The cells were transfected with four different ssODNs. These included ssODN 1061 (SEQ ID NO: 33) and ssODN 1063 (SEQ ID NO: 35) that are complimentary to the DNA strand containing the PAM sequence and ssODN 1062 (SEQ ID NO: 34) and ssODN 1064 (SEQ ID NO: 36) that are complimentary to the DNA strand not containing the PAM sequence.

[1] = gRNA1, ssODN 1067-1070, 2.5 μM Nu7441, 1.25 μM SCR7 or 10 μM RS-1, vs DMSO, FIG. 2A

With `O=c1cc(N2CCOCC2)oc2c(-c3cccc4c3sc3ccccc34)cccc12` [Nu7441] the HDR efficiency [1] was “improved” and the HDR efficiency (gRNA2, ssODN 1061-1064, 2.5 μM Nu7441) was “improved”.

With `O=C(Nc1ccc(Br)cc1)c1ccc(Br)c(S(=O)(=O)NCc2ccccc2)c1` [RS-1] the HDR efficiency [1] was “no improvement”.

For `O=c1[nH]c(=S)[nH]c(N=Cc2ccccc2)c1N=Cc1ccccc1` [SCR7], the HDR efficiency [1] was “no improvement”.
